These results are taken from US10111885B2, “Compositions and therapeutic methods for the treatment of complement-associated diseases” (Resverlogix Corp., priority 2015, dated 2018).

Test [1] deals with C4a/C4b mRNA. Briefly: Complement gene mRNA expression, TaqMan real-time PCR, Huh-7 cells. Type of test: cell-based, human. To be noted: Homo sapiens. The text has this: (§1) In this example, mRNA levels from cultured cells were quantitated. The assay can be used to determine the effect of compound(s) on regulating mRNA levels, including those compounds in the present invention. Complement genes are expressed at high endogenous levels, but their expression can also be stimulated with various cytokines in inflammatory conditions. Experiments in this example target both basal and inflammatory complement gene expression. Compound mediated changes in gene expression and resulting mRNA levels are presented in Tables 2, 3 and 4 as well as FIGS. 1, 2, 3 and 4 below.
(§2) Huh-7 and HepG2 cells are liver-derived cell lines and are models for what can occur in the liver. Huh-7 cells (JCRB Cell Bank) were introduced to 96-well plates (^˜2.5×10^5 per well) in 100 μL DMEM containing 10% (v/v) FBS, 100 U/mL penicillin, 100 ug/mL streptomycin and 5 ug/mL plasmocin (all reagents from Gibco, except for the former, which was obtained from Invivogen). After 24 h, Huh-7 cells were treated with compounds in the same media formulation used for plating, and supplemented with 0.1% DMSO for the amount of time indicated in tables 2, 3, and 4. For select experiments, 24 h post-plating, cells were treated with cytokines and the compound of interest simultaneously, for a total treatment time of 48 h. Alternatively, 24 h after plating, cells were pre-treated with cytokines for 24 h before adding the compound of interest for 48 h. HepG2 cells (ATCC) were cultured in 96-well plates (^˜2.5×10^5 per well) in MEM containing 10% FBS, 1× non-essential amino acids, 1 mM sodium pyruvate, 2 mM L-glutamine, 100 U/mL penicillin, 100 ug/mL streptomycin and 5 ug/mL plasmocin. Serum amount was reduced to 0.5% for treatments with compound or cytokines. Timing of treatment of HepG2 cells with compounds and cytokines was as described for Huh-7 cells. Primary human hepatocytes (CellzDirect/Life Technologies) were plated in collagen coated 96-well plates at 70 000 cells/well, then overlaid with Matrigel™ as recommended by the supplier. Cells were treated with compounds of interest and/or cytokines for the indicated time points in the recommended media supplemented with 0.1% DMSO and 10% FBS (v/v). Cells were harvested by mRNA Catcher PLUS Kit (Life Technologies) followed by real-time PCR using the RNA UltraSense One-Step qRT-PCR System. The level of the mRNA of interest was measured by TaqMan real-time PCR relative to the endogenous control cyclophilin A in the same sample. Data were acquired using the ViiA-7 Real Time PCR System (Applied Biosystems).
(§3) Downregulation of expression of components of the complement cascade will result in reduced activity of the pathway and thus will constitute a positive result. Tables 2 and 3 list the concentration of compounds at which the level of the indicated mRNA is reduced by 50%, as well as the duration of treatment with compound. Table 4 lists the maximum reduction in the indicated mRNA measured in primary human hepatocytes treated with compounds for up to 72 hours. FIGS. 1, 2, 3 and 4 show effects of compounds on cytokine-induced (i.e. inflammatory) expression of complement genes in Huh-7 cells and HepG2 cells.

Test [2] has as its system C3 mRNA. Described as above. Format: cell-based, human. The settings on record: Homo sapiens.
Text: as §1, §2, §3

Test [3] deals with ex vivo perfused pig xenografts. To be noted: porcine-to-human kidney perfusion animal model; cited from earlier work.
In test [4] the test system is erythrocyte lysis. The settings on record: erythrocyte lysis animal model; cited from earlier work.
For test [5], the system named is C5 mRNA. Description: Complement gene mRNA expression, TaqMan real-time PCR, Huh-7 cells. Type of test: cell-based, human. To be noted: Homo sapiens; Huh-7, 48 h treatment; read-out: C5 (48 h) mRNA, half maximal inhibitory concentration (IC50).
Text: as §1, §2, §3

For test [6] the following is noted: hereditary angioedema; cited from earlier work.
Setting [7] is: Huh-7, 48 h treatment (Table 3), read-out: mRNA expression in Huh-7 cells: IC50 (uM), C4.
Where [8] appears, read: Huh-7, 48 h treatment (Table 3), read-out: mRNA expression in Huh-7 cells: IC50 (uM), C3.
Setting [9] is: Huh-7, 48 h treatment, read-out: C4a/C4b (48 h) mRNA, half maximal inhibitory concentration (IC50).
Where [10] appears, read: Huh-7, 48 h treatment, read-out: C3 (48 h) mRNA, half maximal inhibitory concentration (IC50).

Where two headings read alike, the source gives them in different places.

Turning to `COc1cc(OC)c2c(=O)[nH]c(-c3cc(C)c(OCCN4CCCC4)c(C)c3)nc2n1` [RVX000662], the figures for the IC50 in test [1] (setting [7]) and in test [2] (setting [8]) were 21.1 µM and 29.2 µM, respectively.

Turning to `COC(=O)NCCOc1c(C)cc(-c2nc3cc(OC)cc(OC)c3c(=O)[nH]2)cc1C` [RVX002113], the IC50 in test [1] (setting [7]) stood at 7.8 µM; in test [2] (setting [8]), 5.8 µM.

On to `COc1cc(OC)c2c(=O)[nH]c(-c3cc(C)c(OCCNC(C)=O)c(C)c3)nc2c1` [RVX002101], for which the IC50 was determined as 22 µM in test [1] (setting [7]) and 11.3 µM in test [2] (setting [8]).

`COc1cc(OC)c2c(=O)[nH]c(-c3cc(C)c(OCCNC(=O)C(C)C)c(C)c3)nc2c1` [RVX002103]: the IC50 in test [1] (setting [7]) turned out to be 13.8 µM; in test [2] (setting [8]), 13.9 µM.

`COc1cc(OC)c2c(=O)[nH]c(-c3cc(C)c(OCCNS(C)(=O)=O)c(C)c3)nc2c1` [RVX002093, N-(2-(4-(5,7-dimethoxy-4-oxo-3,4-dihydroquinazolin-2-yl)-2,6-dimethylphenoxy)ethyl)methanesulfonamide]: the IC50 in test [1] (setting [7]) stood at 17.2 µM; in test [2] (setting [8]), 18.5 µM.

As for `CC[C@H](C)[C@H](N)C(=O)N[C@H]1CSSC[C@@H](C(=O)N[C@H](C(N)=O)[C@@H](C)O)NC(=O)[C@H](CCCN=C(N)N)NC(=O)[C@H](Cc2cnc[nH]2)NC(=O)[C@H](Cc2cnc[nH]2)NC(=O)CNC(=O)[C@H](Cc2c[nH]c3ccccc23)NC(=O)[C@H](CC(=O)O)NC(=O)[C@H](CCC(N)=O)NC(=O)[C@H](C(C)C)NC(=O)[C@H](C(C)C)NC1=O` [compstatin], in test [3], the graft survival entry was “prolonged graft survival”. Besides, in test [4], the reduction of hemolysis was 50%.

Consider `COc1cc(OCCN2CCCC2)cc(-c2nc3cc(OC)cc(OC)c3c(=O)[nH]2)c1` [RVX000641], for which the IC50 in test [1] (setting [7]) came to 9.3 µM; in test [2] (setting [8]) it was 12.6 µM.

Turning to `COc1cc(OC)c2c(=O)[nH]c(-c3cc(C)c(O)c(C)c3)nc2c1` [RVX000206], the IC50 in test [1] (setting [7]) was determined as 9.3 µM; in test [2] (setting [8]) it was 3.6 µM.

Take `COc1cc(OC)c2c(=O)[nH]c(-c3ccc(N4CCN(C)CC4)cc3)nc2c1` [RVX000255, 5,7-dimethoxy-2-(4-(4-methylpiperazin-1-yl)phenyl)quinazolin-4(3H)-one]: the results for the IC50 in test [1] (setting [7]) and in test [2] (setting [8]) were 17.4 µM and 20.4 µM, respectively.

Regarding `COc1cc(OC)c2c(=O)[nH]c(-c3ccc(N4CCN(C(C)C)CC4)cc3)nc2c1` [RVX002109], the figures for the IC50 in test [1] (setting [9]), in test [5] and in test [2] (setting [10]) were 62.2 µM, more than 50 µM and 34.8 µM, respectively.

As for `COc1cc(OC)c2c(=O)[nH]c(-c3cc(C)c(OCCN4CCC(F)(F)C4)c(C)c3)nc2c1` [RVX000843], the IC50 in test [1] (setting [7]) was more than 50 µM; in test [2] (setting [8]) it was 11.1 µM.

As to `COc1cc(OC)c2c(=O)[nH]c(-c3cc(C)c(OCCN4CCCC4)c(C)c3)nc2c1` [RVX000297], the IC50 in test [1] (setting [9]) is 4.5 µM; in test [5] it was more than 10 µM; in test [2] (setting [10]), 4.7 µM.

On to `COc1cc(OC)c2c(=O)[nH]c(-c3cc(C)c(OCCNC(C)C)c(C)c3)nc2c1` [RVX002135], for which the IC50 came to 4.3 µM in test [1] (setting [9]), 37.9 µM in test [5] and 2.2 µM in test [2] (setting [10]).

With `COc1cc(OC)c2c(=O)[nH]c(-c3ccc4[nH]c(CN(C)C)cc4c3)nc2c1` [RVX000668], the IC50 in test [1] (setting [7]) was 15.6 µM; in test [2] (setting [8]), 9.5 µM.

For the molecule `COc1cc(OC)c2c(=O)[nH]c(-c3ccc(N4CCNCC4)cc3)nc2c1` [RVX002141], the IC50 amounted to 17.8 µM in test [1] (setting [7]) and 15.4 µM in test [2] (setting [8]).

In the case of `COc1cc(OC)c2c(=O)[nH]c(-c3cc(C)c(OCC(O)CO)c(C)c3)nc2c1` (stereo not drawn) [RVX000344], the IC50 in test [1] (setting [7]) is 15.6 µM; in test [2] (setting [8]), 11.6 µM.

B1: Recombinant human C1INH: recombinant human C1 esterase inhibitor (protein, UniProt P05155 23-500, looked up)
Plasma protease C1 inhibitor: NPNATSSSSQDPESLQDRGEGKVATTVISKMLFVEPILEVSSLPTTNSTTNSATKITANTTDEPTTQPTTEPTTQPTIQPTQPTTQLPTDSPTQPTTGSFCPGPVTLCSDLESHSTEAVLGDALVDFSLKLYHAFSAMKKVETNMAFSPFSIASLLTQVLLGAGENTKTNLESILSYPKDFTCVHQALKGFTTKGVTSVSQIFHSPDLAIRDTFVNASRTLYSSSPRVLSNNSDANLELINTWVAKNTNNKISRLLDSLPSDTRLVLLNAIYLSAKWKTTFDPKKTRMEPFHFKNSVIKVPMMNSKKYPVAHFIDQTLKAKVGQLQLSHNLSLVILVPQNLKHRLEDMEQALSPSVFKAIMEKLEMSKFQPTLLTLPRIKVTTSQDMLSIMEKLEFFDFSYDLNLCGLTEDPDLQVSAMQHQTVLELTETGVEAAAASAISVARTLLVFEVQQPFLFVLWDQQHKFPVFMGRVYDPRA
B1: the “symptoms of repeat HAE attacks” value in test [6] is “effective in improving symptoms”.
